Laboratory results as given in patent publication US11066393B2, “Indolin-2-one derivatives” (Hoffmann-La Roche Inc., priority 2015, dated 2021).

Biological target: T1, mouse ENT-1 transporter (Mus musculus, UniProt Q9JIM1)
T1 construct: expressed in transfected cells
T1 sequence (Q9JIM1 1-460): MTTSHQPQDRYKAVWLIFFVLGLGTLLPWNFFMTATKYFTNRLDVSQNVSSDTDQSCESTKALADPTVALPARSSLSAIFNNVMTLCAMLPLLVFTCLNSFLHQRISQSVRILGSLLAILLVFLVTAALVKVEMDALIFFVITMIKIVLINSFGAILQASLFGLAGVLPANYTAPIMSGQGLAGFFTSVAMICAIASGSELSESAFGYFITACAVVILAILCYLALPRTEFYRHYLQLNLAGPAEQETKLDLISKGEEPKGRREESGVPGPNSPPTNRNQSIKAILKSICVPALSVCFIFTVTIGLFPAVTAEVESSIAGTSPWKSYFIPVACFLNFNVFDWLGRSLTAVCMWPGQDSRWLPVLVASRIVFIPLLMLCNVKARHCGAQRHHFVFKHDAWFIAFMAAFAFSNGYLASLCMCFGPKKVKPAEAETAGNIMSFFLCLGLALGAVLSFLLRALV
Assay: Adenosine transport activity (ENT1, [3H]-adenosine uptake)
Type: cell-based
Conditions: stable cells expressing mouse ENT-1; [2,8-3H]-adenosine 6 nM, 20 min
Description: To measure adenosine transport activity of ENT-1 mammalian cells, stable cells expressing the mouse ENT-1 transporter were plated on day 1 in 96-well culture plates at the density of 60,000 cells/well, in complete DMEM/F12 medium supplemented with glutamax, 10% FBS and 10 μg/ml puromycin. On day 2, the medium was aspirated and the cells were washed twice with uptake buffer (10 mM Hepes-Tris, pH 7.4 containing 150 mM NaCl, 1 mM CaCl2, 2.5 mM KCl, 2.5 mM MgSO4, 10 mM D-glucose) (UB). For inhibition experiments, cells were then incubated at RT with various concentrations of compounds with 1% DMSO final. Non-specific uptake was defined in the presence of 10 μM S-(4-Nitrobenzyl)-6-thioinosine (NBTI, Sigma Cat #N2255).
A solution containing [2,8-^3H]-adenosine 6 nM (40 Ci/mmol, American Radiolabeled chemicals Inc, Cat #ART 0287A) was then immediately added to the wells. The plates were then incubated for 20 min with gentle shaking and the reaction was stopped by aspiration of the mixture and washing (three times) with ice-cold UB. The cells were lysed by the addition of scintillation liquid, shaken 3 hours and the radioactivity in the cells was estimated using a microplates scintillation counter (TopCount NXT, Packard).

Row | Compound | IC50 [nM]
1 | 5-(3,3-Dimethyl-6-(2-methylpyrimidin-5-yl)-2-oxoindolin-1-yl)-N,2-dimethylnicotinamide [Example 41] | 413
2 | Cc1ncc(-c2ccc3c(c2)N(c2cncc(C(=O)N(C)C)n2)C(=O)C3(C)C)cn1 [Example 1, 6-(3,3-Dimethyl-6-(2-methylpyrimidin-5-yl)-2-oxoindolin-1-yl)-N,N-dimethylpyrazine-2-carboxamide] | 19.5
3 | Cc1ncc(-c2ccc3c(c2)N(c2cncc(C(=O)N4CCC4)n2)C(=O)C3(C)C)cn1 [Example 3, 1-(6-(Azetidine-1-carbonyl)pyrazin-2-yl)-3,3-dimethyl-6-(2-methylpyrimidin-5-yl)indolin-2-one] | 31.4
4 | Cc1ncc(-c2ccc3c(c2)N(c2cncc(C(=O)N(C)CC(F)(F)F)n2)C(=O)C3(C)C)cn1 [Example 4, 6-(3,3-Dimethyl-6-(2-methylpyrimidin-5-yl)-2-oxoindolin-1-yl)-N-methyl-N-(2,2,2-trifluoroethyl)pyrazine-2-carboxamide] | 513
5 | COCCN(C)C(=O)c1cncc(N2C(=O)C(C)(C)c3ccc(-c4cnc(C)nc4)cc32)n1 [Example 5, 6-(3,3-Dimethyl-6-(2-methylpyrimidin-5-yl)-2-oxoindolin-1-yl)-N-(2-methoxyethyl)-N-methylpyrazine-2-carboxamide] | 382
6 | Cc1ncc(-c2ccc3c(c2)N(c2cncc(C(=O)NCCO)n2)C(=O)C3(C)C)cn1 [Example 6, 6-(3,3-Dimethyl-6-(2-methylpyrimidin-5-yl)-2-oxoindolin-1-yl)-N-(2-hydroxyethyl)pyrazine-2-carboxamide] | 30
7 | Cc1ncc(-c2ccc3c(c2)N(c2cncc(C(=O)NCC(F)(F)F)n2)C(=O)C3(C)C)cn1 [Example 8, 6-(3,3-Dimethyl-6-(2-methylpyrimidin-5-yl)-2-oxoindolin-1-yl)-N-(2,2,2-trifluoroethyl)pyrazine-2-carboxamide] | 451
8 | Cc1ncc(-c2ccc3c(c2)N(c2cncc(C(=O)NC(C)C)n2)C(=O)C3(C)C)cn1 [Example 9, 6-(3,3-Dimethyl-6-(2-methylpyrimidin-5-yl)-2-oxoindolin-1-yl)-N-isopropylpyrazine-2-carboxamide] | 196
9 | Cc1ncc(-c2ccc3c(c2)N(c2cncc(C(N)=O)n2)C(=O)C3(C)C)cn1 [Example 10, 6-(3,3-Dimethyl-6-(2-methylpyrimidin-5-yl)-2-oxoindolin-1-yl)pyrazine-2-carboxamide] | 197
10 | Cc1ncc(-c2ccc3c(c2)N(c2cnc(C(=O)N(C)C(C)(C)C)cn2)C(=O)C3(C)C)cn1 [Example 12, N-(tert-Butyl)-5-(3,3-dimethyl-6-(2-methylpyrimidin-5-yl)-2-oxoindolin-1-yl)-N-methylpyrazine-2-carboxamide] | 927
11 | Cc1ncc(-c2ccc3c(c2)N(c2cnc(C(=O)N4CCC4)cn2)C(=O)C3(C)C)cn1 [Example 13, 1-(5-(Azetidine-1-carbonyl)pyrazin-2-yl)-3,3-dimethyl-6-(2-methylpyrimidin-5-yl)indolin-2-one] | 767
12 | COCCN(C)C(=O)c1cnc(N2C(=O)C(C)(C)c3ccc(-c4cnc(C)nc4)cc32)cn1 [Example 14, 5-(3,3-Dimethyl-6-(2-methylpyrimidin-5-yl)-2-oxoindolin-1-yl)-N-(2-methoxyethyl)-N-methylpyrazine-2-carboxamide] | 186
13 | Cc1ncc(-c2ccc3c(c2)N(c2cnc(C(N)=O)cn2)C(=O)C3(C)C)cn1 [Example 15, 5-(3,3-Dimethyl-6-(2-methylpyrimidin-5-yl)-2-oxoindolin-1-yl)pyrazine-2-carboxamide] | 391
14 | Cc1ncc(-c2ccc3c(c2)N(c2nccc(C(=O)N(C)C)n2)C(=O)C3(C)C)cn1 [Example 17, 2-(3,3-Dimethyl-6-(2-methylpyrimidin-5-yl)-2-oxoindolin-1-yl)-N,N-dimethylpyrimidine-4-carboxamide] | 537
15 | CNC(=O)c1nc(N2C(=O)C(C)(C)c3ccc(-c4cnc(C)nc4)cc32)ncc1C [Example 18, 2-(3,3-Dimethyl-6-(2-methylpyrimidin-5-yl)-2-oxoindolin-1-yl)-N,5-dimethylpyrimidine-4-carboxamide] | 78.4
16 | Cc1ncc(-c2ccc3c(c2)N(c2ccnc(C(=O)N(C)C)n2)C(=O)C3(C)C)cn1 [Example 19, 4-(3,3-Dimethyl-6-(2-methylpyrimidin-5-yl)-2-oxoindolin-1-yl)-N,N-dimethylpyrimidine-2-carboxamide] | 725

Row | Compound | IC50 [nM]
17 | CNC(=O)c1nccc(N2C(=O)C(C)(C)c3ccc(-c4cnc(C)nc4)cc32)n1 [Example 20, 4-(3,3-Dimethyl-6-(2-methylpyrimidin-5-yl)-2-oxoindolin-1-yl)-N-methylpyrimidine-2-carboxamide] | 120
18 | Cc1ncc(-c2ccc3c(c2)N(c2ccc(C(=O)N(C)C)nn2)C(=O)C3(C)C)cn1 [Example 21, 6-(3,3-Dimethyl-6-(2-methylpyrimidin-5-yl)-2-oxoindolin-1-yl)-N,N-dimethylpyridazine-3-carboxamide] | 964
19 | Cc1ncc(-c2ccc3c(c2)N(c2cccc(C(=O)N(C)C)n2)C(=O)C3(C)C)cn1 [Example 23, 6-(3,3-Dimethyl-6-(2-methylpyrimidin-5-yl)-2-oxoindolin-1-yl)-N,N-dimethylpicolinamide] | 374
20 | Cc1ncc(-c2ccc3c(c2)N(c2cccc(C(=O)NCC4CC4)n2)C(=O)C3(C)C)cn1 [Example 25, N-(Cyclopropylmethyl)-6-(3,3-dimethyl-6-(2-methylpyrimidin-5-yl)-2-oxoindolin-1-yl)picolinamide] | 49.9
21 | Cc1ncc(-c2ccc3c(c2)N(c2cccc(C(N)=O)n2)C(=O)C3(C)C)cn1 [Example 26, 6-(3,3-Dimethyl-6-(2-methylpyrimidin-5-yl)-2-oxoindolin-1-yl)picolinamide] | 253
22 | CNC(=O)c1nc(N2C(=O)C(C)(C)c3ccc(-c4cnc(C)nc4)cc32)ccc1C [Example 27, 6-(3,3-Dimethyl-6-(2-methylpyrimidin-5-yl)-2-oxoindolin-1-yl)-N,3-dimethylpicolinamide] | 14.8
23 | Cc1ncc(-c2ccc3c(c2)N(c2ccc(C)c(C(=O)N(C)C)n2)C(=O)C3(C)C)cn1 [Example 28, 6-(3,3-Dimethyl-6-(2-methylpyrimidin-5-yl)-2-oxoindolin-1-yl)-N,N,3-trimethylpicolinamide] | 351
24 | Cc1ncc(-c2ccc3c(c2)N(c2cncc(C(=O)N(C)C)c2)C(=O)C3(C)C)cn1 [Example 30, 5-(3,3-Dimethyl-6-(2-methylpyrimidin-5-yl)-2-oxoindolin-1-yl)-N,N-dimethylnicotinamide] | 608
25 | Cc1ncc(-c2ccc3c(c2)N(c2cncc(C(=O)N4CCC4)c2)C(=O)C3(C)C)cn1 [Example 31, 1-(5-(Azetidine-1-carbonyl)pyridin-3-yl)-3,3-dimethyl-6-(2-methylpyrimidin-5-yl)indolin-2-one] | 202
26 | Cc1ncc(-c2ccc3c(c2)N(c2cncc(C(=O)NCC(F)(F)F)c2)C(=O)C3(C)C)cn1 [Example 32, 5-(3,3-Dimethyl-6-(2-methylpyrimidin-5-yl)-2-oxoindolin-1-yl)-N-(2,2,2-trifluoroethyl)nicotinamide] | 477
27 | CNC(=O)c1cncc(N2C(=O)C(C)(C)c3ccc(-c4cnc(C)nc4)cc32)c1 [Example 33, 5-(3,3-Dimethyl-6-(2-methylpyrimidin-5-yl)-2-oxoindolin-1-yl)-N-methylnicotinamide] | 559
28 | CNC(=O)c1cc(N2C(=O)C(C)(C)c3ccc(-c4cnc(C)nc4)cc32)cc(C)n1 [Example 34, 4-(3,3-Dimethyl-6-(2-methylpyrimidin-5-yl)-2-oxoindolin-1-yl)-N,6-dimethylpicolinamide] | 1140
29 | CNC(=O)c1cc(N2C(=O)C(C)(C)c3ccc(-c4cnc(C)nc4)cc32)ccn1 [Example 35, 4-(3,3-Dimethyl-6-(2-methylpyrimidin-5-yl)-2-oxoindolin-1-yl)-N-methylpicolinamide] | 534
30 | Cc1ncc(-c2ccc3c(c2)N(c2cnc4c(c2)C(=O)N(C)C4)C(=O)C3(C)C)cn1 [Example 36, 3-(3,3-Dimethyl-6-(2-methylpyrimidin-5-yl)-2-oxoindolin-1-yl)-6-methyl-6,7-dihydro-5H-pyrrolo[3,4-b]pyridin-5-one] | 637
31 | Cc1ncc(-c2ccc3c(c2)N(c2ccc4c(c2)C(=O)N(C)C4)C(=O)C3(C)C)cn1 [Example 37, 3,3-Dimethyl-1-(2-methyl-3-oxoisoindolin-5-yl)-6-(2-methylpyrimidin-5-yl)indolin-2-one] | 668
